{"source": "patent US20100273656A1", "about": "“COMPOSITION AND METHOD FOR SELECTIVE HERBICIDE” (priority 2002, published 2010)", "key": {"dandelions": {"system": "dandelions", "experiment": "Example 1 field test of iron chelates, dandelion damage", "assay_type": "in vivo, Taraxacum officinale", "conditions": "sprayed once at 100 ml/m^2, 5 days after spraying", "method": "The following non-limiting examples serve to further describe the invention. Unless otherwise specified, all of the iron solutions were made using the same molar concentration of iron ion as chelating agent. All of the outside tests were done on areas of mixed grass and dandelions that were at least 2 months old. For the greenhouse tests, dandelions were grown in a commercial greenhouse mix, using supplemental lighting and heating. Each plant was grown in a 2¼ inch pot to a minimum diameter of 20 cm. All of the solutions were sprayed onto the plants at a rate of 100 ml/m^2. The ferrous sulfate formulations that were used in examples 1, 2, 8 and 9 contained 1% iron (180 mM), 18 mM EDTA, 1% citric acid and 0.5% urea. In all of the examples, the amount of iron is identified in brackets as the percent iron on a weight basis.\nAll plant damage was assessed using a qualitative rating scale from 0 to 9.\nAll of the iron chelates were sprayed once at 0.2% Fe^+3 (35.8 mM), at a volume of 100 ml/m^2 onto 0.5 m^2 areas of mixed grass and dandelions. The spraying of the test was followed by 2 days of rain-free weather. Observations were made 5 days after spraying."}, "[1]": {"system": "turf bentgrass (Agrostis sp.)", "experiment": "Example 11 field test, blackening of bentgrass leaf tips", "assay_type": "in vivo", "method": "The product was diluted 6 ml into 1 L of water solution and applied at rate of 200 ml/m^2, as per label instructions.\nThis test investigated the effect of FeHEDTA and a mixture of FeEDDS and FeMGDA on daisy (Bellis perennis), dandelion (Taraxacum officinale) and a turf bentgrass (Agrostis sp.). The chelating agents were used at one and a half times the molar amount of iron. […] The commercially prepared FeHEDTA product from the Monterey Chemical Company (CA, USA) was used as a standard. […] The solutions were made from NaEDDS (Octaquest E30, Octel) and NaMGDA (Trilon M liquid, BASF, Germany). Ammonium sulfate was added at a concentration of 1%. Killex (Solaris ON, Canada) was diluted and applied as per label instructions of 6 ml/L applied at 200 ml/m^2.\nThe daisy (0.25 m^2) and dandelion (0.5 m^2) test plots were in different areas of the bentgrass field. The dandelions were large, averaging 30 cm in diameter. The daisy patches were between 10 and 20 cm in diameter. The plants were sprayed weekly 4 times."}, "[2]": {"system": "chickweed scarlet pimpernel (Anagallis arvensis)", "experiment": "Example 12 FeHEDTA field test, chickweed scarlet pimpernel", "assay_type": "in vivo", "conditions": "for Survival of Chickweed Plants (%): day 7/day 0", "method": "This test evaluated FeHEDTA with 0.15% and 0.2% Fe for controlling the chickweed scarlet pimpernel (Anagallis arvensis) and dandelion (Taraxacum officinale). The solution contained 1.3 times the molar amount of chelating agent as iron. Field areas of well established chickweed and dandelion (0.5 m^2) were sprayed at a rate of 100 ml/m^2."}, "[3]": {"system": "hairy cat's ear (Hypochoeris radicata)", "experiment": "Example 13 field test, hairy cat's ear", "assay_type": "in vivo", "method": "Killex® (Green Cross, Ontario, Canada) is a commonly used selective lawn herbicide and was included in several field tests as a standard. Killex contains 2,4-D (9.5%), mecoprop (5%) and dicamba (0.9%). The product was diluted 6 ml into 1 L of water solution and applied at rate of 200 ml/m^2, as per label instructions.\nThis test evaluated FeEDDS (0.4% Fe^+3) and FeHEDTA (0.2% Fe^+3) for controlling the weed hairy cat's ear (Hypochoeris radicata), also known as “false dandelion”, grown in areas of mixed grass and Hypochoeris. The iron solutions were sprayed at a rate of 100 ml/m^2 to 1.0 m^2 plots. The iron treatments were resprayed after 7 and 14 days. Killex (Solaris ON, Canada) was diluted and applied once as per label instructions of 6 ml /L applied at 200 ml/m^2."}, "dandelion": {"system": "dandelion", "experiment": "Example 21 Fe chelates with Killex, dandelion", "assay_type": "in vivo, Taraxacum officinale", "conditions": "A29 = 29 days after treatment", "method": "(§1) Plants were fertilized with an all purpose water-soluble fertilizer mix of 20-20-20 (N-P-K; Plant-Prod®) as needed. All broadleaf weeds were grown individually in a 2¼-inch pot until they were a suitable size for herbicide tests (actual weed size is reported in examples below). Perennial ryegrass was also grown in 2¼-inch pots, however many grass seeds were sown in the pot to simulate a small section of turf. Grass plants were continually trimmed to a height of 4 cm, simulating that of a homeowner's lawn. For field tests, plots ¼ m^2 in size were marked out in areas containing the targeted broadleaf weed species growing in turf grass. Plots were continually mowed to simulate a homeowner's lawn. […] In all of the examples, the amounts of the various herbicide components are identified as a percent on a weight basis.\nKillex® (Scotts Canada, Ltd., Ontario, Canada) is a commonly used selective lawn herbicide and was used as the commercial herbicide for herbicide combinations. The labeled dilution and application rates for Killex® are 6 ml into 1 L of solution (0.6%) applied at 200 ml/m^2.\n(§2) All visual plant damage assessments were made using a quantitative rating scale; percent control relative to the untreated check (0=no effect; 100=plant death).\nMaterials and Methods: This trial was conducted in the greenhouse. […] Phytotoxicity (%) was assessed 29 days after treatment (A29)."}, "white clover": {"system": "white clover", "experiment": "Example 22 field test FeIDS and/or FeHEDTA with Killex, white clover", "assay_type": "in vivo", "conditions": "A7 = 7 days after treatment", "method": "as §1, with “basis. […]” for “basis.”\nas §2\nMaterials and Methods: Plots ¼ m^2 in size were marked out in white clover and Park Lawn (turfgrass mixture comprising of 65% perennial ryegrass, 25% chewings/creeping red fescue and 10% Kentucky bluegrass) area in the field. […] Phytotoxicity (%) was assessed on 7 days after treatment (A7)."}}}
{"compound": "O=C([O-])CN(CCO)CCN(CC(=O)[O-])CC(=O)[O-].[Fe+3]", "note": "[FeHEDTA]", "values": [{"measurement": "Dandelion Damage (0 to 9)", "setting": "dandelions", "result": "8.9 0 to 9"}, {"measurement": "Blackening of Bentgrass (Agrostis) Leaf Tips (0 to 9)", "setting": "[1]; day 1", "result": 0}, {"measurement": "Blackening of Bentgrass (Agrostis) Leaf Tips (0 to 9)", "setting": "[1]; day 6", "result": 0}, {"measurement": "Blackening of Bentgrass (Agrostis) Leaf Tips (0 to 9)", "setting": "[1]; day 9", "result": 0}, {"measurement": "Blackening of Bentgrass (Agrostis) Leaf Tips (0 to 9)", "setting": "[1]; day 16", "result": 2}, {"measurement": "Blackening of Bentgrass (Agrostis) Leaf Tips (0 to 9)", "setting": "[1]; day 21", "result": "0.5 0 to 9"}, {"measurement": "Blackening of Bentgrass (Agrostis) Leaf Tips (0 to 9)", "setting": "[1]; day 23", "result": 0}, {"measurement": "Blackening of Bentgrass (Agrostis) Leaf Tips (0 to 9)", "setting": "[1]; day 30", "result": 0}, {"measurement": "Chickweed Plants (#/0.5 m^2)", "setting": "[2]; 7 days after spraying, listed as FeHEDTA (0.15% Fe)", "result": "8 #/0.5 m^2"}, {"measurement": "Chickweed Plants (#/0.5 m^2)", "setting": "[2]; 7 days after spraying, listed as FeHEDTA (0.20% Fe)", "result": "4 #/0.5 m^2"}, {"measurement": "numbers of chickweed plants, in words", "setting": "[2]; Example 12, text", "result": "significantly reduced"}, {"measurement": "Chickweed Plants (#/0.5 m^2)", "setting": "[2]; day 0, listed as FeHEDTA (0.15% Fe)", "result": "15 #/0.5 m^2"}, {"measurement": "Chickweed Plants (#/0.5 m^2)", "setting": "[2]; day 0, listed as FeHEDTA (0.20% Fe)", "result": "25 #/0.5 m^2"}, {"measurement": "Survival of Chickweed Plants (%)", "setting": "[2]; listed as FeHEDTA (0.15% Fe)", "result": 53, "unit": "%"}, {"measurement": "Survival of Chickweed Plants (%)", "setting": "[2]; listed as FeHEDTA (0.20% Fe)", "result": 16, "unit": "%"}, {"measurement": "Area Covered by Hairy Cat's Ear (%)", "setting": "[3]; day 0", "result": 65, "unit": "%"}, {"measurement": "Relative Cat's Ear Area (Start = 100%)", "setting": "[3]; day 0", "result": 100, "unit": "%"}, {"measurement": "Area Covered by Hairy Cat's Ear (%)", "setting": "[3]; day 6", "result": 20, "unit": "%"}, {"measurement": "Relative Cat's Ear Area (Start = 100%)", "setting": "[3]; day 6", "result": 31, "unit": "%"}, {"measurement": "Area Covered by Hairy Cat's Ear (%)", "setting": "[3]; day 8", "result": 20, "unit": "%"}, {"measurement": "Relative Cat's Ear Area (Start = 100%)", "setting": "[3]; day 8", "result": 31, "unit": "%"}, {"measurement": "Area Covered by Hairy Cat's Ear (%)", "setting": "[3]; day 14", "result": 5, "unit": "%"}, {"measurement": "Relative Cat's Ear Area (Start = 100%)", "setting": "[3]; day 15", "result": 8, "unit": "%"}, {"measurement": "Area Covered by Hairy Cat's Ear (%)", "setting": "[3]; day 18", "result": 0, "unit": "%"}, {"measurement": "Relative Cat's Ear Area (Start = 100%)", "setting": "[3]; day 18", "result": 0, "unit": "%"}, {"measurement": "Phytotoxicity (%) against dandelion", "setting": "dandelion", "result": 24, "unit": "%"}, {"measurement": "Phytotoxicity (%) against white clover", "setting": "white clover", "result": 48, "unit": "%"}]}
